Test results as given in paper PMC9945734 (BMC Medicine, 2023).
Like-named read-outs stand apart in the source and are kept apart here.

Experiments:
[1] = test system: DU 145 (KLF5 null) cells expressing KLF5^K369R; assay: CCK-8 cell viability assay; assay type: cell-based; conditions: Homo sapiens, CCK-8, 48 h
Description: (§1) According to the manufacturer's instructions, cell viability was measured using a kit from Beyotime Biotechnology. Briefly, cells were seeded onto 96-well plates at 5 × 10^3 cells per well, incubated overnight, and then treated for 48 h with drugs at 0, 0.02, 0.05, 0.14, 0.41, 1.23, 3.7, 11.1, 33.3, and 100 μM. Four drugs were analyzed: furagin, nifuratel, nitazoxanide, and retapamulin. At the end of drug treatment, the medium was removed, the CCK-8 solution was added into each well at 100 μL/well and incubated for 1.5 h at 37°C, and the optical density (OD) was measured at 450 nm using a microplate reader (BioTek).

[2] = test system: PC-3 (KLF5 null) cells expressing KLF5^K369R; assay: CCK-8 cell viability assay; assay type: cell-based; conditions: Homo sapiens, CCK-8, 48 h
Description: as §1

[3] = test system: DU 145 (KLF5 null) cells expressing KLF5; assay: CCK-8 cell viability assay; assay type: cell-based; conditions: Homo sapiens, CCK-8, 48 h
Description: as §1

[4] = test system: PC-3 (KLF5 null) cells expressing KLF5; assay: CCK-8 cell viability assay; assay type: cell-based; conditions: Homo sapiens, CCK-8, 48 h
Description: as §1

[5] = test system: PC-3-KQ cells; assay: 3D spheroid invasion assay and screening of FDA-approved drugs; assay type: cell-based, human; conditions: for activity at 0.01 µM / activity at 0.1 µM / activity at 1 µM / activity at 10 µM / inhibition at 0.1 µM: Homo sapiens; for activity at 0.01 µM / activity at 0.1 µM / activity at 1 µM / activity at 10 µM: 72 h, read-out: Invasion rates (%) of each drug’s multiple concentrations; for activity at 0.01 µM / activity at 0.1 µM / activity at 1 µM / activity at 10 µM / Invasion rates (%) of each drug’s multiple concentrations (μM): compared to vehicle control; for inhibition at 0.1 µM: read-out: inhibition of cell invasion
How it was run: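 Cells were clustered into spheroids by centrifugation and grown 3 days, then embedded in matrigel-medium containing drug on day 4 and cultured another 3 days. Drugs were screened at 10 μM first, then at 0–10 μM, in duplicate wells. Invasion area is total area minus core sphere area from phase-contrast images.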

[6] = test system: DU 145 (KLF5 null) cells expressing KLF5^K369Q; assay: CCK-8 cell viability assay; assay type: cell-based, human; conditions: Homo sapiens; DU 145 (KLF5 null), KLF5^K369Q; CCK-8, 48 h
Description: as §1
(§2) We also tested a wider range of NTZ concentrations in PC-3-KQ and DU 145-KQ cells using the CCK-8 assay by seeding 2 × 10^3 cells and 2.5 × 10^3 cells onto each well of 96-well plates. PC-3-KQ cells were treated with NTZ at 0, 0.01, 0.1, […], 2.5, and 5 μM, while DU 145-KQ cells were treated with NTZ at 0, 0.01, 0.1, 5, 10, and 20 μM for 0, 24, 48, and 72 h. The number of viable cells was determined using the CCK-8 solution as described above.

[7] = test system: PC-3 (KLF5 null) cells expressing KLF5^K369Q; assay: CCK-8 cell viability assay; assay type: cell-based, human; conditions: Homo sapiens; PC-3 (KLF5 null), KLF5^K369Q; CCK-8, 48 h
Description: as §1, §2

[8] = target: T1, KLF5^K369R protein (Homo sapiens, UniProt Q13887, K369R); assay: Fluorescence titration (quenching) of KLF5 protein; conditions: read-out: binding constant Kd
T1 construct: made in house; host or cells: E. coli BL21 DE3
Description: (§3) Wild-type or mutant KLF5 protein at 1 μM in 2 mL PBS was measured for fluorescence spectrum using a fluorescence spectrometer (HORIBA, Kyoto, Japan), and the fluorescence spectra were obtained for wavelengths of 300–500 nm. NTZ with various concentration ranges and various increments were used in the analysis, including 0.1–1 μM with an increment of 0.1 μM, 1–5 μM with an increment of 0.5 μM, 5–10 μM with an increment of 1 μM, and 10–30 μM with an increment of 5 μM. The incubation with NTZ was for 5 s at room temperature. Data were processed and fitted to obtain the binding affinities using the Origin software (OriginLab, Northampton, MA, USA), and Kd values were determined by the responses at […] wavelength.

[9] = target: T2, KLF5 protein (Homo sapiens, UniProt Q13887); assay: Fluorescence titration (quenching) of KLF5 protein; conditions: read-out: binding constant Kd
T2 construct: made in house; host or cells: E. coli BL21 DE3
Description: as §3

[10] = target: T3, KLF5^K369Q protein (Homo sapiens, UniProt Q13887, K369Q); assay: Fluorescence titration (quenching) of KLF5 protein; conditions: read-out: binding constant Kd
T3 construct: made in house; host or cells: E. coli BL21 DE3
Description: as §3

[11] = 0.01 μM (first column so headed), secondary screening of 87 hit compounds (Table S1)
[12] = 0.01 μM (first column so headed), third screening of 25 hit compounds (Table S2)
[13] = 0.01 μM (second column so headed), third screening of 25 hit compounds (Table S2)
[14] = 0.1 μM, secondary screening of 87 hit compounds (Table S1)
[15] = 0.1 μM, third screening of 25 hit compounds (Table S2)
[16] = 1 μM, secondary screening of 87 hit compounds (Table S1)
[17] = 1 μM, third screening of 25 hit compounds (Table S2)
[18] = 10 μM, secondary screening of 87 hit compounds (Table S1)
[19] = 10 μM, third screening of 25 hit compounds (Table S2)
[20] = 0.01 μM (second column so headed), secondary screening of 87 hit compounds (Table S1)

T2 sequence (Q13887 whole entry): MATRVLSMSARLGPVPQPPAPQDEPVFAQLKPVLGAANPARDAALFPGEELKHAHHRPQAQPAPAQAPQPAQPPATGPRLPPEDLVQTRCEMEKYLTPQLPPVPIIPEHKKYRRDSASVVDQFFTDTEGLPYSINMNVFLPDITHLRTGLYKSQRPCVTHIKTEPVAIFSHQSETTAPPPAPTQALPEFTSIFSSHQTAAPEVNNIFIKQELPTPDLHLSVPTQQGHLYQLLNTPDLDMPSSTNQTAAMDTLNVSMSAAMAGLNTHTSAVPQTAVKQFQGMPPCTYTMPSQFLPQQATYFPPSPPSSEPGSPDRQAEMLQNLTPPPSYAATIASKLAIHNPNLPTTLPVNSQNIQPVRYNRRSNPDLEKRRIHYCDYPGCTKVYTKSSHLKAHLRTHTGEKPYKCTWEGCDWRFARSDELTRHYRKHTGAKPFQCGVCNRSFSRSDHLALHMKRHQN
T1 sequence (Q13887 whole entry K369R): as the sequence (Q13887 whole entry) above, with K369R counted along it
T3 sequence (Q13887 whole entry K369Q): as the sequence (Q13887 whole entry) above, with K369Q counted along it

SMILES	IC50 [1] [µM]	IC50 [2] [µM]	IC50 [3] [µM]	IC50 [4] [µM]	activity at 0.01 µM [5, 11] [%]	activity at 0.01 µM [5, 12] [%]	activity at 0.01 µM [5, 13] [%]	activity at 0.1 µM [5, 14] [%]	activity at 0.1 µM [5, 15] [%]	activity at 1 µM [5, 16] [%]	activity at 1 µM [5, 17] [%]	activity at 10 µM [5, 18] [%]	activity at 10 µM [5, 19] [%]	inhibition at 0.1 µM [5] [%]	IC50 [6] [µM]	IC50 [7] [µM]	activity at 0.01 µM [5, 20] [%]	also measured
C=C[C@]1(C)C[C@@H](OC(=O)CS[C@@H]2C[C@H]3CC[C@@H](C2)N3C)[C@]2(C)[C@H](C)CC[C@]3(CCC(=O)[C@H]32)[C@@H](C)[C@@H]1O [Retapamulin]	11.1 ± 0.8	12.2 ± 1.1	13.7 ± 2.7	1.6 ± 0.3	7.43	74.4	94.3	7.18	4.92	7.28	1.65	4.68	2.42	> 50	14.7 ± 1.5	12.6 ± 2.3	–	–
O=C1CN(/N=C/C=C/c2ccc([N+](=O)[O-])o2)C(=O)N1 [Furagin]	359 ± 127	101 ± 27.9	31.4 ± 4	17.3 ± 2.2	24.8	77.1	97.5	5.95	2.26	3.36	2.3	2.18	1.29	> 50	63.3 ± 2.4	28.6 ± 1.9	42.2	–
CSCC1CN(/N=C/c2ccc([N+](=O)[O-])o2)C(=O)O1 (stereo not drawn) [Nifuratel]	14 ± 0.2	18.7 ± 1	7.1 ± 0.7	32 ± 1.6	70	59.9	93.9	60.6	7.32	8.43	3.12	0.26	1.46	> 50	16.2 ± 0.8	18.6 ± 0.7	82.6	–
CC1(C)CCC(C)(C)c2cc(NC(=O)c3ccc(C(=O)O)cc3)ccc21 [Am80]	–	–	–	–	–	–	–	–	–	–	–	–	–	–	–	–	–	Kd [8]: > 30 µM; Kd [9]: > 30 µM; Kd [10]: > 30 µM
Cc1nc(Nc2ncc(C(=O)Nc3c(C)cccc3Cl)s2)cc(N2CCN(CCO)CC2)n1.Cl [Dasatinib (hydrochloride)]	–	–	–	–	–	–	–	–	–	–	–	–	–	–	–	–	–	Invasion rates (%) of each drug’s multiple concentrations (μM) [5, 11]: 54.32%; Invasion rates (%) of each drug’s multiple concentrations (μM) [5, 12]: 99.47%; Invasion rates (%) of each drug’s multiple concentrations (μM) [5, 20]: 60.68%; Invasion rates (%) of each drug’s multiple concentrations (μM) [5, 13]: 101.09%; Invasion rates (%) of each drug’s multiple concentrations (μM) [5, 14]: 53.75%; Invasion rates (%) of each drug’s multiple concentrations (μM) [5, 15]: 92.00%; Invasion rates (%) of each drug’s multiple concentrations (μM) [5, 16]: 49.82%; Invasion rates (%) of each drug’s multiple concentrations (μM) [5, 17]: 87.73%; Invasion rates (%) of each drug’s multiple concentrations (μM) [5, 18]: 38.63%; Invasion rates (%) of each drug’s multiple concentrations (μM) [5, 19]: 56.83%
COc1ccc2c3c1O[C@H]1C[C@@H](O)C=C[C@@]31CCN(C)C2 [Galanthamine]	–	–	–	–	86.8	–	–	88.4	–	83.3	–	15.1	–	–	–	–	–	–
O=C(Cn1ccnc1[N+](=O)[O-])NCc1ccccc1 [Benznidazol]	–	–	–	–	92.5	–	–	88.1	–	90.9	–	4.48	–	–	–	–	94.3	–
